SMILES strings stand for the structures. Values after ≈ are worked out from the molar mass of the structure shown.

The results in this text go back to patent publication US5939399A, “Polyene antibiotics, 3874 H1 to H6, processes for their preparation and use” (Hoechst Aktiengesellschaft, priority 1996, dated 1999).

Data set [1] is described as follows: Chemical stability. As to conditions: for Stability (unstable in / on exposure to): acidic and strongly alkaline solution, light, heat and oxygen; for Stability (stable in): neutral and weakly alkaline medium. The format is physicochemical.
Data set [2] can be described thus: Solubility in organic solvents. The format is physicochemical.
In data set [3] the test system is test microbes. As to the kind of experiment: Agar diffusion test, zones of inhibition. The format is cell-based. As to conditions: for Zone of inhibition (diameter) / zone of inhibition at 25 µg/mL / zone of inhibition at 50 µg/mL / zone of inhibition at 100 µg/mL / zone of inhibition at 200 µg/mL: agar layer; for zone of inhibition at 25 µg/mL: concentration 0.025 mg/mL; for zone of inhibition at 25 µg/mL / zone of inhibition at 50 µg/mL / zone of inhibition at 100 µg/mL / zone of inhibition at 200 µg/mL / zone of inhibition at 6.3 µg/mL / zone of inhibition at 12.5 µg/mL: read-out: Zone of inhibition (diameter); for zone of inhibition at 50 µg/mL: concentration 0.05 mg/mL; for zone of inhibition at 100 µg/mL: concentration 0.1 mg/mL; for zone of inhibition at 200 µg/mL: concentration 0.2 mg/mL. The text has this: The superiority of the antibiotics according to the invention is shown particularly in so-called diffusion tests in which the compounds diffuse in an agar layer containing the test microbes. The diameter of the zones of inhibition is then a measure of the activity of the antibiotics (Table 3).

Data set [4] has as its system E. floccosum 190/143. As to the kind of experiment: In vitro microdilution test in RPMI 1640 medium. The format is cell-based. As to conditions: Epidermophyton floccosum, 144 h, dermatophyte E. floccosum 190/143, 6 days at 30° C., read-out: Minimum inhibitory concentration MIC. As for the experimental part: (§1) In vitro activity on dermatophytes, yeasts and molds
(§2) (microdilution test in RPMI 1640 medium)
(§3) Incubation: 48 h at 35° C. (yeasts) or 6 days at 30° C. (dermatophytes and molds)

The subject of data set [5] is A. niger ATCC 16404. As to the kind of experiment: In vitro microdilution test in RPMI 1640 medium. The settings on record: Aspergillus niger, ATCC16404, 144 h, mold A. niger ATCC 16404, 6 days at 30° C., read-out: Minimum inhibitory concentration MIC. The format is cell-based. As for the experimental part:
as §1, §2, §3
In general terms: Broth dilution looks for growth in wells or tubes with falling amounts of substance.

For data set [6], the system named is A. flavus ATCC 9643. Kind of data set: In vitro microdilution test in RPMI 1640 medium. The format is cell-based. The settings on record: Aspergillus flavus, ATCC9643, 144 h, mold A. flavus ATCC 9643, 6 days at 30° C., read-out: Minimum inhibitory concentration MIC. As for the experimental part:
as §1, §2, §3

For data set [7], the system named is C. albicans ATCC 90029. As to the kind of experiment: In vitro microdilution test in RPMI 1640 medium. The settings on record: Candida albicans, ATCC90029, yeast C. albicans ATCC 90029, 48 h at 35° C., read-out: Minimum inhibitory concentration MIC. The class given is cell-based. The method, then:
as §1, §2, §3

Data set [8] concerns C. pseudotropicalis 202/218. Kind of data set: In vitro microdilution test in RPMI 1640 medium. The class given is cell-based. The settings on record: Kluyveromyces marxianus, yeast C. pseudotropicalis 202/218, 48 h at 35° C., read-out: Minimum inhibitory concentration MIC. As for the experimental part: as §1, §2, §3
For data set [9], the system named is C. krusei 203/230. As to the kind of experiment: In vitro microdilution test in RPMI 1640 medium. The format is cell-based. As to conditions: Pichia kudriavzevii, yeast C. krusei 203/230, 48 h at 35° C., read-out: Minimum inhibitory concentration MIC. The method, then:
as §1, §2, §3

Data set [10] concerns T. mentagrophytes 100/25. As to the kind of experiment: In vitro microdilution test in RPMI 1640 medium. As to conditions: Trichophyton mentagrophytes, 144 h, dermatophyte T. mentagrophytes 100/25, 6 days at 30° C., read-out: Minimum inhibitory concentration MIC. The format is cell-based. As for the experimental part: as §1, §2, §3
The subject of data set [11] is C. krusei Berlin 1. Kind of data set: In vitro microdilution test in RPMI 1640 medium. The class given is cell-based. As to conditions: Pichia kudriavzevii, BERLIN1, yeast C. krusei Berlin 1, 48 h at 35° C., read-out: Minimum inhibitory concentration MIC. As for the experimental part:
as §1, §2, §3

Data set [12] has as its system C. tropicalis 201/202. Kind of data set: In vitro microdilution test in RPMI 1640 medium. The format is cell-based. The settings on record: Candida tropicalis, yeast C. tropicalis 201/202, 48 h at 35° C., read-out: Minimum inhibitory concentration MIC. As for the experimental part: as §1, §2, §3
Data set [13] relates to T. rubrum 101/58. Kind of data set: In vitro microdilution test in RPMI 1640 medium. The format is cell-based. The settings on record: Trichophyton rubrum, 144 h, dermatophyte T. rubrum 101/58, 6 days at 30° C., read-out: Minimum inhibitory concentration MIC. The method, then: as §1, §2, §3
Data set [14] concerns C. glabrata Berlin 12. As to the kind of experiment: In vitro microdilution test in RPMI 1640 medium. The format is cell-based. The settings on record: Nakaseomyces glabratus, BERLIN12, yeast C. glabrata Berlin 12, 48 h at 35° C., read-out: Minimum inhibitory concentration MIC. As for the experimental part: as §1, §2, §3
For data set [15], the system named is C. glabrata ATCC 90030. As to the kind of experiment: In vitro microdilution test in RPMI 1640 medium. The format is cell-based. The settings on record: Nakaseomyces glabratus, ATCC90030, yeast C. glabrata ATCC 90030, 48 h at 35° C., read-out: Minimum inhibitory concentration MIC. As for the experimental part: as §1, §2, §3
Data set [16] deals with C. albicans ATCC 90028. As to the kind of experiment: In vitro microdilution test in RPMI 1640 medium. The format is cell-based. The settings on record: Candida albicans, ATCC90028, yeast C. albicans ATCC 90028, 48 h at 35° C., read-out: Minimum inhibitory concentration MIC. The method, then: as §1, §2, §3
Data set [17] deals with A. fumigatus ATCC 9197. As to the kind of experiment: In vitro microdilution test in RPMI 1640 medium. The class given is cell-based. As to conditions: Aspergillus fumigatus, ATCC9197, 144 h, mold A. fumigatus ATCC 9197, 6 days at 30° C., read-out: Minimum inhibitory concentration MIC. As for the experimental part:
as §1, §2, §3

For data set [18], the system named is C. tropicalis 201/201. As to the kind of experiment: In vitro microdilution test in RPMI 1640 medium. The format is cell-based. The settings on record: Candida tropicalis, yeast C. tropicalis 201/201, 48 h at 35° C., read-out: Minimum inhibitory concentration MIC. As for the experimental part: as §1, §2, §3
Data set [19] has as its system C. parapsilosis ATCC 90018. As to the kind of experiment: In vitro microdilution test in RPMI 1640 medium. The format is cell-based. The settings on record: Lodderomyces parapsilosis, ATCC90018, yeast C. parapsilosis ATCC 90018, 48 h at 35° C., read-out: Minimum inhibitory concentration MIC. As for the experimental part: as §1, §2, §3
Data set [20] has as its system C. neoformans ATCC 90112. Kind of data set: In vitro microdilution test in RPMI 1640 medium. The format is cell-based. The settings on record: Cryptococcus neoformans, ATCC90112, yeast C. neoformans ATCC 90112, 48 h at 35° C., read-out: Minimum inhibitory concentration MIC. The method, then: as §1, §2, §3
The nature of data set [21]: Binding to ergosterol compared with cholesterol.

For `CNc1ccc(C(=O)CC(O)CCC(C)C2OC(=O)CC(O)CC(O)CCCC(O)CC(O)CC(O)CC3(O)CC(O)C(C(=O)O)C(CC(OC4OC(C)C(O)C(N)C4O)/C=C/C=C/C=C/C=C\C=C/C=C/C=C/C2C)O3)cc1` (stereo not drawn) [3874 H2], in [1], the “Stability (unstable in / on exposure to)” value is “unstable in acidic and strongly alkaline solution and on exposure to light, heat and oxygen”; the “Stability (stable in)” value was “Stable in neutral and weakly alkaline medium”. In data set [2], the Solubility result is “soluble in methanol, acetonitrile and chloroform”.
In the case of `C[C@@H]1[C@H](O)[C@@H](C)/C=C/C=C/C=C/C=C/C=C/C=C/C=C/[C@H](O[C@@H]2O[C@H](C)[C@@H](O)[C@H](N)[C@@H]2O)C[C@@H]2O[C@](O)(C[C@@H](O)C[C@@H](O)[C@H](O)CC[C@@H](O)C[C@@H](O)CC(=O)O[C@H]1C)C[C@H](O)[C@H]2C(=O)O` [Amphotericin B, amphotericin B, reference compound], the “Zone of inhibition (diameter)” value in [3] (concentration 0.0063 mg/mL) is “.o slashed”. Besides, the “Zone of inhibition (diameter)” value in data set [3] (concentration 0.0125 mg/mL) is listed as “.o slashed”. Besides, in [3], the zone of inhibition (usually the extent of the growth-free halo in a diffusion test) at 25 µg/mL was 8 mm, the zone of inhibition at 50 µg/mL came out at 10 mm, the zone of inhibition at 100 µg/mL amounted to 12 mm and the zone of inhibition at 200 µg/mL stood at 14 mm. Further, the Solubility result in [2] is “only very low solubility in the said solvents and others”.
Take `CC1/C=C/C=C/C=C\C=C/C=C/C=C/C=C/C(OC2OC(C)C(O)C(N)C2O)CC2OC(O)(CC(O)CC(O)CC(O)CCCC(O)CC(O)CC(=O)OC1C(C)CCC(O)CC(=O)c1ccc(N)cc1)CC(O)C2C(=O)O` (stereo not drawn) [3874 H1]: the zone of inhibition at 25 µg/mL in data set [3] was 21 mm. Also, the zone of inhibition at 50 µg/mL in data set [3] was 24 mm. Besides, the zone of inhibition at 100 µg/mL in data set [3] came out at 25 mm. In data set [3], the zone of inhibition at 200 µg/mL was 26 mm. For the same compound, the zone of inhibition at 6.3 µg/mL in data set [3] was 17 mm. The zone of inhibition at 12.5 µg/mL in data set [3] stood at 19 mm. The MIC was determined as 16 µg/mL (≈ 14.6 µM) in data set [4]; 2 µg/mL (≈ 1.82 µM) in data set [5]; 8 µg/mL (≈ 7.28 µM) in [6]; 2 µg/mL (≈ 1.82 µM) in data set [7]; 2 µg/mL (≈ 1.82 µM) in [8]; 4 µg/mL (≈ 3.64 µM) in data set [9]. Moreover, the MIC in [10] worked out at 4 µg/mL (≈ 3.64 µM); in [11], 2 µg/mL (≈ 1.82 µM); in data set [12], 2 µg/mL (≈ 1.82 µM); in data set [13], 16 µg/mL (≈ 14.6 µM); in data set [14] it was 2 µg/mL (≈ 1.82 µM); in data set [15] it was 4 µg/mL (≈ 3.64 µM). Further, the MIC in [16] came to 2 µg/mL (≈ 1.82 µM); in data set [17] it was 4 µg/mL (≈ 3.64 µM); in data set [18], 2 µg/mL (≈ 1.82 µM); in [19] it was 4 µg/mL (≈ 3.64 µM); in [20], 2 µg/mL (≈ 1.82 µM). The “Stability (unstable in / on exposure to)” value in data set [1] was “unstable in acidic and strongly alkaline solution and on exposure to light, heat and oxygen”. The “Stability (stable in)” value in data set [1] was “Stable in neutral and weakly alkaline medium”. The Solubility entry in data set [2] was “soluble in methanol, acetonitrile and chloroform”.
Turning to `C/C=C/C=C/C(=O)CC(O)CCC(C)C1OC(=O)CC(O)CC(O)CCCC(O)CC(O)CC(O)CC2(O)CC(O)C(C(=O)O)C(CC(OC3OC(C)C(O)C(N)C3O)/C=C/C=C/C=C/C=C\C=C/C=C/C=C/C1C)O2` (stereo not drawn) [3874 H3], the zone of inhibition at 25 µg/mL in [3] was 14 mm. For the same compound, the zone of inhibition at 50 µg/mL in [3] turned out to be 18 mm. The zone of inhibition at 100 µg/mL in data set [3] turned out to be 20 mm. Besides, the zone of inhibition at 200 µg/mL in [3] stood at 22 mm. The zone of inhibition at 6.3 µg/mL in [3] was 12 mm. Further, the zone of inhibition at 12.5 µg/mL in data set [3] is 13 mm. Besides, the MIC was 16 µg/mL (≈ 14.9 µM) in data set [4]; 8 µg/mL (≈ 7.45 µM) in data set [5]; 16 µg/mL (≈ 14.9 µM) in data set [6]; 4 µg/mL (≈ 3.72 µM) in data set [7]; 4 µg/mL (≈ 3.72 µM) in data set [8]; 4 µg/mL (≈ 3.72 µM) in [9]. The MIC in [10] worked out at 8 µg/mL (≈ 7.45 µM); in [11], 2 µg/mL (≈ 1.86 µM); in data set [12], 4 µg/mL (≈ 3.72 µM); in [13], 16 µg/mL (≈ 14.9 µM); in data set [14], 4 µg/mL (≈ 3.72 µM); in data set [15] it was 4 µg/mL (≈ 3.72 µM). The MIC is 4 µg/mL (≈ 3.72 µM) in data set [16]; 4 µg/mL (≈ 3.72 µM) in data set [17]; 4 µg/mL (≈ 3.72 µM) in data set [18]; 4 µg/mL (≈ 3.72 µM) in data set [19]; 2 µg/mL (≈ 1.86 µM) in data set [20]. Further, the “Stability (unstable in / on exposure to)” value in data set [1] was “unstable in acidic and strongly alkaline solution and on exposure to light, heat and oxygen”. The “Stability (stable in)” value in [1] is “Stable in neutral and weakly alkaline medium”. Besides, in data set [2], the Solubility result was “soluble in methanol and other lower alcohols, acetonitrile and chloroform”. The “Binding to ergosterol versus cholesterol” value in data set [21] is “bind more strongly to ergosterol than to cholesterol”.
